Results taken from ChEMBL document CHEMBL3046121, “Design and synthesis of new N-substituted amino methyl-[1,2,3] triazolyl moieties of fluoroquinolones as antibacterial agents” (2013).
Converted amounts (≈) assume the structure as drawn.

Assays:
Format in all cases: functional
Moraxella catarrhalis = test: Antibacterial activity against Moraxella catarrhalis ATCC 25238 assessed as growth inhibition after 24 hr by two-fold serial dilution method; conditions: ATCC 25238, 24 h
Staphylococcus aureus [1] = test: Antibacterial activity against methicillin-sensitive Staphylococcus aureus ATCC 29213 assessed as growth inhibition after 24 hr by two-fold serial dilution method; conditions: ATCC 29213, 24 h
Staphylococcus aureus [2] = test: Antibacterial activity against Methicillin-resistant Staphylococcus aureus ATCC 33591 assessed as growth inhibition after 24 hr by two-fold serial dilution method; conditions: ATCC 33591, 24 h
Enterococcus faecalis = test: Antibacterial activity against Vancomycin-resistant Enterococcus faecalis ATCC 700802 assessed as growth inhibition after 24 hr by two-fold serial dilution method; conditions: ATCC 700802, 24 h
Acinetobacter baumannii = test: Antibacterial activity against Acinetobacter baumannii BAA 747 assessed as growth inhibition after 24 hr by two-fold serial dilution method; conditions: BAA 747, 24 h
Klebsiella pneumoniae = test: Antibacterial activity against clinical Klebsiella pneumoniae AB 356 assessed as growth inhibition after 24 hr by two-fold serial dilution method; conditions: AB 356, 24 h

SMILES | MIC (Moraxella catarrhalis) | MIC (Staphylococcus aureus [1]) | MIC (Staphylococcus aureus [2]) | MIC (Enterococcus faecalis) | MIC (Acinetobacter baumannii) | MIC (Klebsiella pneumoniae)
O=C(O)c1cn(C2CC2)c2cc(-n3cc(CNC4CCCCCC4)nn3)c(F)cc2c1=O | 8 µg/mL (≈ 18.2 µM) | 32 µg/mL (≈ 72.8 µM) | 32 µg/mL (≈ 72.8 µM) | 32 µg/mL (≈ 72.8 µM) | 16 µg/mL (≈ 36.4 µM) | 16 µg/mL (≈ 36.4 µM)
O=C(O)c1cn(C2CC2)c2cc(-n3cc(CNc4ccccc4)nn3)c(F)cc2c1=O | 0.125 µg/mL (≈ 0.298 µM) | 0.25 µg/mL (≈ 0.596 µM) | 0.5 µg/mL (≈ 1.19 µM) | 2 µg/mL (≈ 4.77 µM) | 1 µg/mL (≈ 2.38 µM) | 1 µg/mL (≈ 2.38 µM)
O=C(O)c1cn(C2CC2)c2cc(-n3cc(CNc4ccc(F)cc4)nn3)c(F)cc2c1=O | 0.25 µg/mL (≈ 0.572 µM) | 0.25 µg/mL (≈ 0.572 µM) | 1 µg/mL (≈ 2.29 µM) | 4 µg/mL (≈ 9.14 µM) | 2 µg/mL (≈ 4.57 µM) | 2 µg/mL (≈ 4.57 µM)
O=C(O)c1cn(C2CC2)c2cc(-n3cc(CNc4ccc(Cl)cc4)nn3)c(F)cc2c1=O | 0.125 µg/mL (≈ 0.275 µM) | 0.25 µg/mL (≈ 0.551 µM) | 0.25 µg/mL (≈ 0.551 µM) | 1 µg/mL (≈ 2.2 µM) | 0.5 µg/mL (≈ 1.1 µM) | 1 µg/mL (≈ 2.2 µM)
COc1ccc(NCc2cn(-c3cc4c(cc3F)c(=O)c(C(=O)O)cn4C3CC3)nn2)cc1 | 0.5 µg/mL (≈ 1.11 µM) | 0.5 µg/mL (≈ 1.11 µM) | 0.5 µg/mL (≈ 1.11 µM) | 2 µg/mL (≈ 4.45 µM) | 8 µg/mL (≈ 17.8 µM) | 4 µg/mL (≈ 8.9 µM)
Cc1ccc(NCc2cn(-c3cc4c(cc3F)c(=O)c(C(=O)O)cn4C3CC3)nn2)cc1 | 0.125 µg/mL (≈ 0.288 µM) | 0.5 µg/mL (≈ 1.15 µM) | 0.5 µg/mL (≈ 1.15 µM) | 2 µg/mL (≈ 4.61 µM) | 8 µg/mL (≈ 18.5 µM) | 4 µg/mL (≈ 9.23 µM)
O=C(O)c1cn(C2CC2)c2cc(-n3cc(CNCc4ccccc4)nn3)c(F)cc2c1=O | 1 µg/mL (≈ 2.31 µM) | 2 µg/mL (≈ 4.61 µM) | 2 µg/mL (≈ 4.61 µM) | 4 µg/mL (≈ 9.23 µM) | 8 µg/mL (≈ 18.5 µM) | 1 µg/mL (≈ 2.31 µM)
O=C(O)c1cn(C2CC2)c2cc(-n3cc(CNCc4ccc(F)cc4)nn3)c(F)cc2c1=O | 1 µg/mL (≈ 2.22 µM) | 2 µg/mL (≈ 4.43 µM) | 2 µg/mL (≈ 4.43 µM) | 4 µg/mL (≈ 8.86 µM) | 8 µg/mL (≈ 17.7 µM) | 2 µg/mL (≈ 4.43 µM)
O=C(O)c1cn(C2CC2)c2cc(-n3cc(Cn4ccnc4)nn3)c(F)cc2c1=O | 8 µg/mL (≈ 20.3 µM) | 32 µg/mL (≈ 81.1 µM) | 32 µg/mL (≈ 81.1 µM) | 32 µg/mL (≈ 81.1 µM) | 32 µg/mL (≈ 81.1 µM) | 32 µg/mL (≈ 81.1 µM)
CN(C)Cc1cn(-c2cc3c(cc2F)c(=O)c(C(=O)O)cn3C2CC2)nn1 | 1 µg/mL (≈ 2.69 µM) | 4 µg/mL (≈ 10.8 µM) | 8 µg/mL (≈ 21.5 µM) | 16 µg/mL (≈ 43.1 µM) | 8 µg/mL (≈ 21.5 µM) | 2 µg/mL (≈ 5.39 µM)
CCN(CC)Cc1cn(-c2cc3c(cc2F)c(=O)c(C(=O)O)cn3C2CC2)nn1 | 16 µg/mL (≈ 40.1 µM) | 8 µg/mL (≈ 20 µM) | 32 µg/mL (≈ 80.1 µM) | 32 µg/mL (≈ 80.1 µM) | 16 µg/mL (≈ 40.1 µM) | 16 µg/mL (≈ 40.1 µM)
CCCN(CCC)Cc1cn(-c2cc3c(cc2F)c(=O)c(C(=O)O)cn3C2CC2)nn1 | 2 µg/mL (≈ 4.68 µM) | 8 µg/mL (≈ 18.7 µM) | 32 µg/mL (≈ 74.9 µM) | 32 µg/mL (≈ 74.9 µM) | 16 µg/mL (≈ 37.4 µM) | 8 µg/mL (≈ 18.7 µM)
O=C(O)c1cn(C2CC2)c2cc(-n3cc(CN4CCCC4)nn3)c(F)cc2c1=O | 1 µg/mL (≈ 2.52 µM) | 2 µg/mL (≈ 5.03 µM) | 8 µg/mL (≈ 20.1 µM) | 16 µg/mL (≈ 40.3 µM) | 8 µg/mL (≈ 20.1 µM) | 2 µg/mL (≈ 5.03 µM)
O=C(O)c1cn(C2CC2)c2cc(-n3cc(CN4CCCCC4)nn3)c(F)cc2c1=O | 1 µg/mL (≈ 2.43 µM) | 4 µg/mL (≈ 9.72 µM) | 16 µg/mL (≈ 38.9 µM) | 16 µg/mL (≈ 38.9 µM) | 8 µg/mL (≈ 19.4 µM) | 2 µg/mL (≈ 4.86 µM)
O=C(O)c1cn(C2CC2)c2cc(-n3cc(CN4CCOCC4)nn3)c(F)cc2c1=O | 4 µg/mL (≈ 9.68 µM) | 8 µg/mL (≈ 19.4 µM) | 16 µg/mL (≈ 38.7 µM) | 16 µg/mL (≈ 38.7 µM) | 16 µg/mL (≈ 38.7 µM) | 16 µg/mL (≈ 38.7 µM)
O=C(O)c1cn(C2CC2)c2cc(-n3cc(CN4CCNCC4)nn3)c(F)cc2c1=O | 8 µg/mL (≈ 19.4 µM) | 16 µg/mL (≈ 38.8 µM) | 16 µg/mL (≈ 38.8 µM) | 32 µg/mL (≈ 77.6 µM) | 32 µg/mL (≈ 77.6 µM) | 8 µg/mL (≈ 19.4 µM)
CC(C)NCc1cn(-c2cc3c(cc2F)c(=O)c(C(=O)O)cn3C2CC2)nn1 | 1 µg/mL (≈ 2.59 µM) | 16 µg/mL (≈ 41.5 µM) | 16 µg/mL (≈ 41.5 µM) | 16 µg/mL (≈ 41.5 µM) | 16 µg/mL (≈ 41.5 µM) | 4 µg/mL (≈ 10.4 µM)
O=C(O)c1cn(C2CC2)c2cc(-n3cc(CNC4CC4)nn3)c(F)cc2c1=O | 32 µg/mL (≈ 83.5 µM) | 16 µg/mL (≈ 41.7 µM) | 16 µg/mL (≈ 41.7 µM) | 16 µg/mL (≈ 41.7 µM) | 32 µg/mL (≈ 83.5 µM) | 32 µg/mL (≈ 83.5 µM)
O=C(O)c1cn(C2CC2)c2cc(-n3cc(CNC4CCCC4)nn3)c(F)cc2c1=O | 1 µg/mL (≈ 2.43 µM) | 16 µg/mL (≈ 38.9 µM) | 16 µg/mL (≈ 38.9 µM) | 16 µg/mL (≈ 38.9 µM) | 16 µg/mL (≈ 38.9 µM) | 4 µg/mL (≈ 9.72 µM)
O=C(O)c1cn(C2CC2)c2cc(-n3cc(CNC4CCCCC4)nn3)c(F)cc2c1=O | 1 µg/mL (≈ 2.35 µM) | 16 µg/mL (≈ 37.6 µM) | 32 µg/mL (≈ 75.2 µM) | 32 µg/mL (≈ 75.2 µM) | 8 µg/mL (≈ 18.8 µM) | 2 µg/mL (≈ 4.7 µM)
O=C(O)c1cn(C2CC2)c2cc(N3CCNCC3)c(F)cc2c1=O [CIPROFLOXACIN] | 0.25 µg/mL (≈ 0.754 µM) | 0.5 µg/mL (≈ 1.51 µM) | 0.5 µg/mL (≈ 1.51 µM) | 0.5 µg/mL (≈ 1.51 µM) | 0.5 µg/mL (≈ 1.51 µM) | 
CC(=O)NC[C@H]1CN(c2ccc(N3CCOCC3)c(F)c2)C(=O)O1 [LINEZOLID] | 4 µg/mL (≈ 11.9 µM) |  |  |  | > 32 µg/mL | > 32 µg/mL
